According to patent US9416103B2, “Use of the aminoalkylindole JWH-073-M4 and related compounds as neutral CB1 receptor antagonists for the treatment of alcoholism, drug abuse, obesity, and obesity-related diseases” (The Board of Trustees of the University of Arkansas, priority 2012, dated 2016):
“And” between values parts separate entries of the source, which are not always exact repeats. Equal values may be shown once. Read-outs that look alike come from different tables or passages of the source. Marks after values point to notes of the source that are not given here.

Key:
[1] = molecular target: T1, CB1Rs (Mus musculus (Mouse), UniProt P47746); assay: Competition receptor binding with [3H]CP-55,940 in mouse brain homogenates
Method: (§1) Mouse brain homogenates for in vitro assays were prepared as previously described. Briefly, whole brains were harvested from B6SJL mice, snap-frozen in liquid nitrogen and stored at −80° C. On the day membrane homogenates were to be prepared, brains were thawed on ice, then pooled in a 40 mL Dounce glass homogenizer and suspended in 5 volumes of ice cold homogenization buffer (50 mM HEPES, pH 7.4, 3 mM MgCl2, and 1 mM EGTA). Brains were then subjected to 10 complete strokes with an A pestle, followed by centrifugation at 40,000×g for 10 minutes at +4° C. Resulting supernatants were discarded, and the pellet was resuspended, homogenized and centrifuged similarly twice more, with supernatants being discarded. For the final resuspension and homogenization with a B pestle, ice-cold 50 mM HEPES was used in place of homogenization buffer, and homogenates were aliquoted and stored at −80° C. Protein concentrations of homogenates were determined using the BCA™ Protein Assay (Thermo Scientific, Rockford, Ill.).
(§2) Competition receptor binding was performed as previously described. […] Reactions were terminated by rapid vacuum filtration through Whatman GF/B glass fiber filters, followed by five washes with ice-cold buffer (50 mM Tris, 0.05% BSA). Filters were immediately placed into 7 mL scintillation vials to which 4 mL of ScintiVerse™ BD Cocktail scintillation fluid (Fisher Scientific, Fair Lawn, N.J.) was added. Bound radioactivity was determined after overnight incubation at room temperature and shaking, by liquid scintillation spectrophotometry with an efficiency of 44% (Tri Carb 2100 TR Liquid Scintillation Analyzer, Packard Instrument Company, Meriden, Conn.). Specific binding is expressed as total binding minus non-specific binding, and is graphed for each data point as a percentage of specific binding occurring in the absence of any competitor.
(§3) Curve fitting and statistical analyses for in vitro experiments were performed using GraphPad Prism™ version 5.0b (GraphPad Software Inc., San Diego, Calif.). The Cheng-Prusoff equation [45] was used to convert the experimental IC50 values obtained from competition receptor binding experiments to Ki values, a quantitative measure of receptor affinity. Non-linear regression for one-site competition was used to determine the IC50 for competition receptor binding. Curve fitting of concentration-effect curves via non-linear regression was also employed to determine the EC50 (a measure of potency) and Emax (a measure of efficacy) for [^35S]GTPγS concentration-effects experiments. […] Data are expressed as mean±SEM. The Student's t-test was used to determine statistical significance (P<0.05) between two groups, while a one-way ANOVA, followed by Tukey's Multiple Comparison post-hoc test, was used to determine statistical significance (P<0.05) between three or more groups.
(§4) The prepared analogues were subjected to in vitro pharmacological testing, which included receptor binding and functional assays at both cannabinoid receptors. Initial receptor binding screens at both CB1Rs and CB2Rs were conducted for the analogues prepared.

[2] = molecular target: T1, CB1Rs; assay: [35S]GTPγS binding assay (G-protein activation) in mouse brain homogenates; assay type: biochemical; details: for [35S]GTPγS Binding, +O-2050 (1 μM): 1 μM cannabinoid (100 nM for CP-55,940) co-incubated with CB1R antagonist O-2050 1 μM; for [35S]GTPγS Binding, 10 μM: receptor-saturating concentration 10 μM
Method: as §1
[^35S]GTPγS binding was performed as previously described. Briefly, 25 μg of mouse brain homogenates were incubated for 30 minutes at 30° C. with 0.1 nM [^35S]GTPγS, 10 μM GDP, and either cannabinoid+/−antagonist, 10 μM unlabeled GTPγS (non-specific binding) or vehicle (total binding), in triplicate, in a volume of 1 mL of buffer containing 20 mM HEPES, 10 mM MgCl2, 100 mM NaCl, 20 units/L adenosine deaminase, 0.05% BSA and the appropriate DMSO (0.1%) and/or ethanol (<0.2%) vehicle. Assay buffer containing 100 mM KCl, instead of 100 mM NaCl, was used to increase basal G-protein activity in experiments examining inverse agonism. Reactions were terminated by quick vacuum filtration through Whatman GF/B glass fiber filters, followed by five washes with ice-cold buffer (20 mM HEPES, 0.05% BSA). Filters were immediately placed into 7 mL scintillation vials to which 4 mL of ScintiVerse™ BD Cocktail scintillation fluid was added. Bound radioactivity was determined after overnight incubation at room temperature and shaking by liquid scintillation spectrophotometry with an efficiency of 93% (Tri Carb 2100 TR Liquid Scintillation Analyzer, Packard Instrument Company, Meriden, Conn.). Specific binding is expressed as picomoles of [^35S]GTPγS bound per mg of protein.
as §3

[3] = tested on: NIH Swiss mice; assay: Core body temperature by biotelemetry (cannabinoid tetrad, hypothermia); assay type: in vivo, mouse; details: i.p.
Method: Prior to surgery (see below), male NIH Swiss mice (Harlan Sprague Dawley Inc., Indianapolis, Ind.), weighing approximately 25-30 g, were housed 3 animals per Plexiglas® cage (15.24×25.40×12.70 cm) in a temperature-controlled room in an Association for Assessment and Accreditation of Laboratory Animal Care (AAALAC) accredited animal facility at the University of Arkansas for Medical Sciences. Room conditions were maintained at 22±2° C. and 45-50% humidity. Lights were set to a 12-h light/dark cycle. Animals were fed Lab Diet rodent chow (Laboratory Rodent Diet #5001, PMI Feeds, Inc., St. Louis, Mo.) and water ad libitum throughout testing Animals were acclimated to the laboratory environment for ˜7 days prior to experiments, and to the biotelemetry chambers for at least 2 hours prior to initiation of data acquisition. All test conditions used groups of 5 or 6 mice, and all mice were drug-naïve (with the exception of surgical anesthetics) prior to testing.
Cannabinoid effects on core temperature and locomotor activity were measured using surgically-implanted biotelemetry probes. Following appropriate anesthetization with ketamine (100 mg/kg, intraperitoneal [i.p.]) and xylazine (10 mg/kg, i.p.), the abdominal area of each mouse was shaved and sanitized with iodine swabs. A rostral-caudal cut approximately 1.5 cm in length was made with skin scissors, providing access to the intraperitoneal cavity. A cylindrical glass-encapsulated radiotelemetry probe (model ER-4000 E-Mitter, Mini Mitter Co., Inc., Bend, Oreg.) was then inserted, and the incision was closed using absorbable 5-0 chromic gut suture material. At least 7 days were imposed between surgery and experimental observation of cannabinoid effects to allow incisions to heal and mice to recover normal body weights. Following surgery, implanted mice were individually housed in Plexiglas® mouse cages (15.24×25.40×12.70 cm) for the duration of all temperature and locomotor activity experiments Implanted transmitters produced activity- and temperature-modulated signals that were transmitted to a receiver (model ER-4000 Receiver, Mini Mitter Co., Inc., Bend, Oreg.) underneath each mouse cage. Receivers were housed in light- and sound-attenuating cubicles (Med Associates model ENV-022MD, St. Albans, Vt.) equipped with exhaust fans, which further masked ambient laboratory noise. On experimental days, mice were weighed, marked, and returned to their individual cages during which at least 1 hr of baseline data were collected. […]. Mice were then placed into a new cage with fresh bedding to stimulate exploratory behavior. Temperature and locomotor activity data were collected at regular 5-min intervals and processed simultaneously by the Vital View data acquisition system (Mini Mitter Co., Inc., Bend, Oreg.) for at least 10 hrs.
For core body temperature experiments, the area under the curve (AUC) was calculated using a trapezoidal rule from 0-500 minutes, and statistical significance (P<0.05) was determined using a one-way ANOVA, followed by Tukey's HSD post-hoc test. For locomotor activity, total locomotor counts were summed from 0-800 minutes. Because locomotor, analgesia and catalepsy data were not normally distributed, Kruskal-Wallis one-way ANOVA on ranks were performed, and all pair-wise comparisons were then made using the Tukey's HSD tests. In vivo statistical calculations were performed using SigmaStat 3 (Systat Software, Inc., San Jose, Calif.).

[4] = tested on: NIH Swiss mice; assay: Locomotor activity by biotelemetry (cannabinoid tetrad); assay type: in vivo, mouse; details: 10 mg/kg, i.p.
[5] = molecular target: T2, hCB2Rs (Homo sapiens (Human), UniProt P34972); assay: Competition receptor binding with [3H]CP-55,940 in CHO-hCB2 cell homogenates; details: Table 3; read-out: hCB2R Ki
Method: as §2, §4

[6] = molecular target: T2, hCB2Rs; assay: Inhibition of forskolin-stimulated cAMP production (adenylyl cyclase) in intact CHO-hCB2R cells; assay type: cell-based; details: 10 μM, CHO cell transfected with hCB2 receptors; read-out: AC-inhibition at CB2Rs
Method: Adenylyl cyclases are a family of membrane-bound enzymes that catalyze the intracellular production of the second messenger cAMP from ATP. Adenylyl cyclase activity is modulated by activated G-proteins: Gs-proteins stimulate activity, while Gi/o-proteins are inhibitory. Thus, agonists of G-protein coupled receptors (GPCRs) coupled to Gi/o-proteins, such as hCB2Rs, decrease cAMP production due to inhibition of adenylyl cyclase activity. In this assay, intact CHO-hCB2R cells are preincubated with [^3H]-adenine and treated with forskolin (10 or 30 μM) to stimulate adenylyl cyclase activity.
A functional assay screen for the inhibition of adenylate cyclase (AC) activity was chosen as the subsequent assay. […] Reaching full-receptor occupancy, which is predicted to produce maximal efficacy, is desirable at 10 μM concentration of all the compounds was used.

[7] = molecular target: CB1Rs endogenously expressed in Neuro2A cells (Mus musculus (Mouse), UniProt P47746); assay: Adenylyl cyclase (AC) inhibition via CB1Rs endogenously expressed in Neuro2A cells; assay type: cell-based
[8] = mouse brain homogenates, 0.2 nM [3H]CP-55,940, read-out: [3H]CP binding Ki

Structure (SMILES): COc1cccc2c(C(=O)c3cccc4ccccc34)cn(CCN3CCOCC3)c12
- melting point: 149 to 152 °C

Structure (SMILES): O=C(O)CCCn1cc(C(=O)c2cccc3ccccc23)c2ccccc21 [Compound M6, 4-(3-(1-naphthoyl)-1H-indole-1-yl)-1-butanoic acid, reference compound]
- displacement of [3H]CP-55,940 specific binding ([1]; concentrations as high as 10 μM): less than 10%

Structure (SMILES): CCCCCn1cc(C(=O)c2cccc3ccccc23)c2ccccc21 [JWH-018]
- EC50 ([2]; JWH-018 alone, read-out: EC50 of JWH-018 for G-protein activation, alone): 8 nM
- EC50 ([2]; read-out: EC50 of JWH-018 in the presence of M4, + M4 1 μM): 178 nM
- EC50 ([2]; read-out: EC50 of JWH-018 in the presence of M4, + M4 3 μM): 263 nM
- EC50 ([2]; read-out: EC50 of JWH-018 in the presence of M4, + M4 10 μM): 1560 nM
- maximal decrease in core body temperature to ([3]; JWH-018 3 mg/kg, alone): 30.28+/−0.71 °C

Structure (SMILES): CCCCn1cc(C(=O)c2cccc3ccccc23)c2c(O)cccc21 [Compound M1]
- Ki [1, 8]: 14.1 ± 3.5 nM
- [35S]GTPγS Binding, 1 μM [2]: 0.17 ± 0.01 pmol/mg
- [35S]GTPγS Binding, +O-2050 (1 μM) [2]: 0.07 ± 0.01 pmol/mg
- [35S]GTPγS Binding Emax ([2]; concentration-effect, mouse brain homogenates): 0.14 ± 0.01^b pmole/mg
- EC50 ([2]; concentration-effect, mouse brain homogenates, read-out: [35S]GTPγS Binding EC50): 113 ± 29.2 nM
- [35S]GTPγS Binding, 10 μM [2]: 0.14±0.01 pmole/mg and 0.14 ± 0.01^a pmole/mg
- minimum core body temperature recorded ([3]; 10 mg/kg): 30.32±0.66 °C
- time to maximal core body temperature reduction ([3]; 10 mg/kg): 58.00 ± 4.64 min
- locomotor activity [4]: reduction of locomotor activity similar to that observed with administration of JWH-073

Structure (SMILES): CCCCn1cc(C(=O)Cc2ccc(OC)cc2)c2cccc(OC)c21
- melting point: 72 to 74 °C

Structure (SMILES): O=C(c1cccc2ccccc12)c1cn(CCCCO)c2ccccc12 [Compound M5]
- Ki [1, 8]: 224 ± 9 nM
- [35S]GTPγS Binding, 1 μM [2]: 0.12 ± 0.00 pmol/mg
- [35S]GTPγS Binding, +O-2050 (1 μM) [2]: 0.05 ± 0.01 pmol/mg
- [35S]GTPγS Binding, 10 μM [2]: 0.16±0.02 pmole/mg and 0.16 ± 0.02^a pmole/mg

Structure (SMILES): CCCCn1cc(C(=O)Cc2cccc3ccccc23)c2cccc(OC)c21
- melting point: 110 to 113 °C

Structure (SMILES): CCCCn1cc(C(=O)Cc2ccccc2F)c2cccc(OC)c21
- melting point: 86 to 88 °C

Structure (SMILES): CCCCn1cc(C(=O)c2cccc3ccccc23)c2ccc(O)cc21 [Compound M3]
- Ki ([1]; mouse brain homogenates, 0.2 nM [3H]CP-55,940, read-out: CB1R affinity (Ki)): 1280 ± 470 nM
- [35S]GTPγS Binding, 1 μM [2]: 0.04 ± 0.00 pmol/mg
- [35S]GTPγS Binding, +O-2050 (1 μM) [2]: 0.02 ± 0.01 pmol/mg
- [35S]GTPγS Binding, 10 μM [2]: 0.11±0.02 pmole/mg and 0.11 ± 0.02^a,b pmole/mg

Structure (SMILES): CCCCn1cc(C(=O)Cc2ccc(F)cc2)c2cccc(OC)c21 [TV-5-129, 1-(1-butyl-7-methoxy-1H-indol-3-yl)-2-(4-fluorophenyl)ethanone]
- Ki ([1]; Table 3, read-out: mCB1R Ki): 387 ± 77 nM
- Ki [5]: 281 nM
- inhibition at 10 µM [6]: 22.1%
- inhibition at 10 µM ([7]; N2a, 10 μM, Neuro2A cells): -4%

Structure (SMILES): CC1=CC[C@@H]2[C@@H](C1)c1c(O)cc(CC#CCCCNS(C)(=O)=O)cc1OC2(C)C [Compound O-2050, reference compound]
- antagonism of AC-inhibition produced by the CB1R full agonist JWH-073 ([7]; 1 μM concentration): antagonized AC-inhibition

Structure (SMILES): CCCCn1cc(C(=O)Cc2ccccc2)c2cccc(OC)c21
- melting point: 65 to 68 °C

Structure (SMILES): CCCCn1cc(-c2cccc3ccccc23)c2cccc(OC)c21
- melting point: 74 to 76 °C
